Patent publication US11629171B2, “Beta-hairpin peptidomimetics” (POLYPHOR AG, priority 2017, dated 2023)
Values after ≈ are worked out from the molar mass of the structure shown. Where a SMILES comes first, the peptide text is derived from it. Bridges are numbered along the chain shown (N, C = ends). Roman numbers before positions name the chains, in order. [ ]: non-standard residue; d: D form. aThr = C[C@H](O)[C@H](N)C(=O)O; Tle = CC(C)(C)[C@H](N)C(=O)O; dDab = NCC[C@@H](N)C(=O)O; Nle = CCCC[C@H](N)C(=O)O; Dab = NCC[C@H](N)C(=O)O; Nva = CCC[C@H](N)C(=O)O; Abu = CC[C@H](N)C(=O)O; Dap = NC[C@H](N)C(=O)O

Experiments:
Format in all cases: cell-based
[1] = tested on: Acinetobacter baumannii 872842; conditions: 872842
Method in brief: (§1)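 Cation-adjusted MH-II broth, 0.002% polysorbate 80, inoculum near 10^6 CFU/mL. MIC read visually after 18-20 h, 35° C; units μg/mL.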

[2] = tested on: Acinetobacter baumannii DSM 30008; conditions: DSM 30008
Method in brief: as §1

[3] = tested on: Enterobacter cloacae 848840; conditions: 848840
Method in brief: as §1

[4] = tested on: Escherichia coli 926415; conditions: 926415
Method in brief: as §1

[5] = tested on: Escherichia coli ATCC 25922; conditions: ATCC 25922
Method in brief: as §1

[6] = tested on: Klebsiella pneumoniae 968733; conditions: 968733
Method in brief: as §1

[7] = tested on: Klebsiella pneumoniae SSI #3010; conditions: SSI #3010
Method in brief: as §1

[8] = tested on: Pseudomonas aeruginosa ATCC 27853; conditions: ATCC 27853
Method in brief: as §1

[9] = tested on: human red blood cells (hRBC); test: Hemolysis; conditions: red cells of human, 1 h, 200
Method in brief: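 Percent lysis of human red cells was derived from OD540 of the supernatant, referenced to 2% Triton X-100, after a 1 h, 37° C incubation of 20% (v/v) cells with 200 μg/mL peptide.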

| Structure (SMILES) | MIC [1] [µg/mL] | MIC [2] [µg/mL] | MIC [3] [µg/mL] | MIC [4] [µg/mL] | MIC [5] [µg/mL] | MIC [6] [µg/mL] | MIC [7] [µg/mL] | MIC [8] [µg/mL] | Hemolysis at 200 μg/mL [9] [%] |
| --- | --- | --- | --- | --- | --- | --- | --- | --- | --- |
| CC[C@@H]1NC(=O)[C@@H](CC(C)C)NC(=O)[C@H](CCN)NC(=O)[C@@H](NC(=O)[C@H](CN)NC(=O)[C@@H](NC(=O)[C@H](CCN)NC(=O)CC[C@@H]2NC(=O)[C@H](CCN)NC(=O)[C@H](Cc3ccc(O)cc3)NC(=O)[C@@H](NC(=O)[C@@H](NC(C)=O)C(C)C)CSSC[C@@H](C(=O)N[C@@H](CO)C(N)=O)NC(=O)[C@H](C(C)(C)C)NC(=O)[C@H](CO)NC(=O)[C@H](Cc3c[nH]c4ccccc34)NC(=O)[C@H](CO)NC(=O)[C@@H](CCN)NC2=O)[C@@H](C)O)CCNC(=O)[C@H]([C@@H](C)O)NC(=O)[C@H](CCN)NC(=O)[C@H](CCN)NC1=O [Ex. 136] (I: Ac-VCY[Dab]E[dDab]SWS[Tle]CS-NH2 / II: [Dab]T[Dap][Dab][Dab][dL][Abu][Dab][Dab]T; disulfide I:2-I:11; amide I:5-II:N; lactam II:4-II:C) | 0.03125 (≈ 0.0131 µM) | 0.03125 (≈ 0.0131 µM) | 0.0625 (≈ 0.0262 µM) | 0.0625 (≈ 0.0262 µM) | 0.03125 (≈ 0.0131 µM) | 0.0625 (≈ 0.0262 µM) | 0.0625 (≈ 0.0262 µM) | 0.25 (≈ 0.105 µM) | 3 |
| CC(=O)N[C@H](C(=O)N[C@H]1CSSC[C@@H](C(=O)N[C@H](C(N)=O)[C@@H](C)O)NC(=O)[C@H](C(C)(C)C)NC(=O)[C@H](CO)NC(=O)[C@H](Cc2c[nH]c3ccccc23)NC(=O)[C@H](CO)NC(=O)[C@@H](CCN)NC(=O)[C@H](CCC(=O)N[C@@H](CCN)C(=O)N[C@H](C(=O)N[C@@H](CN)C(=O)N[C@H]2CCNC(=O)[C@H]([C@@H](C)O)NC(=O)[C@H](CCN)NC(=O)[C@H](CCN)NC(=O)[C@H]([C@@H](C)O)NC(=O)[C@@H](CC(C)C)NC(=O)[C@H](CCN)NC2=O)[C@@H](C)O)NC(=O)[C@H](CCN)NC(=O)[C@H](Cc2ccc(O)cc2)NC1=O)C(C)C [Ex. 139] (I: Ac-VCY[Dab]E[dDab]SWS[Tle]CT-NH2 / II: [Dab]T[Dap][Dab][Dab][dL]T[Dab][Dab]T; disulfide I:2-I:11; amide I:5-II:N; lactam II:4-II:C) | 0.0625 (≈ 0.0259 µM) | 0.0625 (≈ 0.0259 µM) | 0.125 (≈ 0.0518 µM) | 0.125 (≈ 0.0518 µM) | 0.0625 (≈ 0.0259 µM) | 0.25 (≈ 0.104 µM) | 0.0625 (≈ 0.0259 µM) | 0.25 (≈ 0.104 µM) | 2 |
| CCCC[C@H](NC(C)=O)C(=O)N[C@H]1CSSC[C@@H](C(=O)N[C@H](C(N)=O)[C@@H](C)O)NC(=O)[C@H](C(C)(C)C)NC(=O)[C@H](CO)NC(=O)[C@H](Cc2c[nH]c3ccccc23)NC(=O)[C@H](CO)NC(=O)[C@@H](CCN)NC(=O)[C@H](CCC(=O)N[C@@H](CCN)C(=O)N[C@H](C(=O)N[C@@H](CN)C(=O)N[C@H]2CCNC(=O)[C@H]([C@@H](C)O)NC(=O)[C@H](CCN)NC(=O)[C@H](CCN)NC(=O)[C@H](CC)NC(=O)[C@@H](CC(C)C)NC(=O)[C@H](CCN)NC2=O)[C@@H](C)O)NC(=O)[C@H](CCN)NC(=O)[C@H](Cc2ccc(O)cc2)NC1=O [Ex. 142] (I: Ac-[Nle]CY[Dab]E[dDab]SWS[Tle]CT-NH2 / II: [Dab]T[Dap][Dab][Dab][dL][Abu][Dab][Dab]T; disulfide I:2-I:11; amide I:5-II:N; lactam II:4-II:C) | 0.03125 (≈ 0.013 µM) | 0.03125 (≈ 0.013 µM) | 0.125 (≈ 0.0518 µM) | 0.03125 (≈ 0.013 µM) | 0.0625 (≈ 0.0259 µM) | 0.0625 (≈ 0.0259 µM) | 0.03125 (≈ 0.013 µM) | 0.125 (≈ 0.0518 µM) | <1 |

Second part, led by results:

| MIC [1] [µg/mL] | MIC [2] [µg/mL] | MIC [3] [µg/mL] | MIC [4] [µg/mL] | MIC [5] [µg/mL] | MIC [6] [µg/mL] | MIC [7] [µg/mL] | MIC [8] [µg/mL] | Structure (SMILES) | Hemolysis at 200 μg/mL [9] [%] |
| --- | --- | --- | --- | --- | --- | --- | --- | --- | --- |
| 0.5 (≈ 0.207 µM) | 0.125 (≈ 0.0518 µM) | 0.25 (≈ 0.104 µM) | 0.25 (≈ 0.104 µM) | 0.125 (≈ 0.0518 µM) | 0.5 (≈ 0.207 µM) | 0.125 (≈ 0.0518 µM) | 0.25 (≈ 0.104 µM) | CC(=O)N[C@H](C(=O)N[C@H]1CSSC[C@@H](C(=O)N[C@H](C(N)=O)[C@@H](C)O)NC(=O)[C@H](C(C)(C)C)NC(=O)[C@H](CO)NC(=O)[C@H](Cc2c[nH]c3ccccc23)NC(=O)[C@H](CO)NC(=O)[C@@H](CCN)NC(=O)[C@H](CCC(=O)N[C@@H](CCN)C(=O)N[C@H](C(=O)N[C@@H](CN)C(=O)N[C@H]2CCNC(=O)[C@H]([C@@H](C)O)NC(=O)[C@H](CCN)NC(=O)[C@H](CCN)NC(=O)[C@H]([C@H](C)O)NC(=O)[C@@H](CC(C)C)NC(=O)[C@H](CCN)NC2=O)[C@@H](C)O)NC(=O)[C@H](CCN)NC(=O)[C@H](Cc2ccc(O)cc2)NC1=O)C(C)C [Ex. 140] (I: Ac-VCY[Dab]E[dDab]SWS[Tle]CT-NH2 / II: [Dab]T[Dap][Dab][Dab][dL][aThr][Dab][Dab]T; disulfide I:2-I:11; amide I:5-II:N; lactam II:4-II:C) | <1 |
| 0.0625 (≈ 0.0259 µM) | 0.03125 (≈ 0.013 µM) | 0.0625 (≈ 0.0259 µM) | 0.03125 (≈ 0.013 µM) | 0.03125 (≈ 0.013 µM) | 0.03125 (≈ 0.013 µM) | 0.03125 (≈ 0.013 µM) | 0.125 (≈ 0.0518 µM) | CCC[C@@H]1NC(=O)[C@@H](CC(C)C)NC(=O)[C@H](CCN)NC(=O)[C@@H](NC(=O)[C@H](CN)NC(=O)[C@@H](NC(=O)[C@H](CCN)NC(=O)CC[C@@H]2NC(=O)[C@H](CCN)NC(=O)[C@H](Cc3ccc(O)cc3)NC(=O)[C@@H](NC(=O)[C@@H](NC(C)=O)C(C)C)CSSC[C@@H](C(=O)N[C@H](C(N)=O)[C@@H](C)O)NC(=O)[C@H](C(C)(C)C)NC(=O)[C@H](CO)NC(=O)[C@H](Cc3c[nH]c4ccccc34)NC(=O)[C@H](CO)NC(=O)[C@@H](CCN)NC2=O)[C@@H](C)O)CCNC(=O)[C@H]([C@@H](C)O)NC(=O)[C@H](CCN)NC(=O)[C@H](CCN)NC1=O [Ex. 141] (I: Ac-VCY[Dab]E[dDab]SWS[Tle]CT-NH2 / II: [Dab]T[Dap][Dab][Dab][dL][Nva][Dab][Dab]T; disulfide I:2-I:11; amide I:5-II:N; lactam II:4-II:C) | 2 |
| 0.03125 (≈ 0.013 µM) | 0.0625 (≈ 0.0261 µM) | 0.0625 (≈ 0.0261 µM) | 0.125 (≈ 0.0521 µM) | 0.03125 (≈ 0.013 µM) | 0.0625 (≈ 0.0261 µM) | 0.0625 (≈ 0.0261 µM) | 0.125 (≈ 0.0521 µM) | CC[C@@H]1NC(=O)[C@@H](CC(C)C)NC(=O)[C@H](CCN)NC(=O)[C@@H](NC(=O)[C@H](CN)NC(=O)[C@@H](NC(=O)[C@H](CCN)NC(=O)CC[C@@H]2NC(=O)[C@H](CCN)NC(=O)[C@H](Cc3ccc(O)cc3)NC(=O)[C@@H](NC(=O)[C@@H](NC(C)=O)C(C)C)CSSC[C@@H](C(=O)N[C@H](C(N)=O)[C@@H](C)O)NC(=O)[C@H]([C@@H](C)CC)NC(=O)[C@H](CO)NC(=O)[C@H](Cc3c[nH]c4ccccc34)NC(=O)[C@H](CO)NC(=O)[C@@H](CCN)NC2=O)[C@@H](C)O)CCNC(=O)[C@H]([C@@H](C)O)NC(=O)[C@H](CCN)NC(=O)[C@H](CCN)NC1=O [Ex. 143] (I: Ac-VCY[Dab]E[dDab]SWSICT-NH2 / II: [Dab]T[Dap][Dab][Dab][dL][Abu][Dab][Dab]T; disulfide I:2-I:11; amide I:5-II:N; lactam II:4-II:C) | 2 |
